# Measurements from patent publication US9278932B1, “Process for preparation of 2-chloro-N-(4-chloro-3-pyridin-2-ylphenyl)-4-methylsulfonylbenzamide solid forms” (SHILPA MEDICARE LIMITED, priority 2013, dated 2016).
# Columns and labels:
# [1] = storage and handling stability of the solid form; assay type: physicochemical
# [2] = crystalline free base; cited from earlier work
"stability on handling and storage (morphology and physicochemical characteristics) ([1]; solid crystalline form, stored for longer time)","time stable to handle and store without any significant or measurable change in morphology and physicochemical characteristics ([1]; solid crystalline material after drying, storage)",Compound,solubility [2]
quite stable,more than 6 months,"CS(=O)(=O)c1ccc(C(=O)Nc2ccc(Cl)c(-c3ccccn3)c2)c(Cl)c1 [Form-SV, 2-Chloro-N-(4-chloro-3-pyridin-2-ylphenyl)-4-methylsulfonylbenzamide]",
,,CS(=O)(=O)c1ccc(C(=O)Nc2ccc(Cl)c(-c3ccccn3)c2)c(Cl)c1 [Vismodegib],pH dependent solubility
